Among the test systems are E. coli; Pseudomonas aeruginosa A; Streptococcus Faecalis; Edwardsiella tarda PE210.
Holding throughout (assay type): cell-based
In assay [1] the test system is Staphylococcus aureus ATCC 29213.
Method: (§1) MIC denotes the lowest concentration of an antimicrobial agent that can inhibit the growth of bacteria after overnight incubation.
(§2) Bacteria were grown in their respective media (Table 2 above) overnight at 37° C. or room temperature with constant shaking and then diluted to 10^6 CFU/ml in their respective medium. Stock solutions of peptides at 0.68 mM were prepared in distilled water. Bacteria and peptide were incubated (50 μl: 50 μl) to make the final peptide concentrations (0.68, 3.4, 6.8, 13.7, 34.1, 68.3, 136.5 μM) in a 96-microtitre plate and incubated for 24 h with constant shaking. […] Absorbance at 600 nm was detected every 3 h up to 24 h to obtain the growth curves. The minimal inhibition concentration (MIC) was defined as the lowest concentration of an antimicrobial agent that could inhibit the growth of bacteria after overnight incubation.
Assay [2] has as its system Multidrug-resistant S. aureus ATCC BAA-44.
Method: as §1, §2
Assay [3] relates to Vibrio alginolyticus ATCC 33840.
Method: as §1, §2
Another assay relates to CpxR. Kind of assay: Quantitative real-time PCR. Particulars: E. coli. The source says:
Each group has 6 biological replicates. […] Gene-specific primers were designed with Primer-BLAST (NCBI).
(Real-time PCR tracks product formation cycle by cycle.)

The test system of assay [4] is Staphylococcus epidermidis ATCC 12228.
Method: as §1, §2
Assay [5] concerns Klebsiella pneumoniae (NDM-1) ATCC BAA-2470.
Method: as §1, §2
Assay [6] deals with Staphylococcus aureus ATCC 6538.
Method: as §1, §2
Assay [7] concerns Acinetobacter baumannii ATCC 19606.
Method: as §1, §2

Peptide text beside a SMILES is read from it.

Method for Edwardsiella tarda PE210: as §1, §2
Method for Streptococcus Faecalis: as §1, §2

On to `CC[C@H](C)[C@H](N)C(=O)N[C@@H](CCCNC(=N)N)C(=O)N[C@H](C(=O)N[C@H](C(=O)N[C@@H](CC(C)C)C(=O)N[C@@H](CCCNC(=N)N)C(=O)N[C@@H](C)C(=O)N[C@@H](CCC(N)=O)C(=O)NCC(=O)N[C@@H](C)C(=O)N[C@@H](CC(C)C)C(=O)N[C@@H](CCCCN)C(=O)N[C@H](C(=O)O)[C@@H](C)CC)[C@@H](C)CC)[C@@H](C)CC` [Peptide A, IRIILRAQGALKI] (H-IRIILRAQGALKI-OH; N-terminus and C-terminus assumed), for which the MICs in assay [1] stood at 64 µM; in [2] it was 21.8 µM; in assay [3], 34.1 µM; in assay [4] it was 2.7 µM; against Pseudomonas aeruginosa A it was 34.1 µM; in the assay with Streptococcus Faecalis, 34.1 µM. In addition, the MICs in [5] amounted to 21.8 µM; in assay [6] it was 13.7 µM; in [7] it was 6.8 µM; against Edwardsiella tarda PE210, 6.8 µM. In addition, the “MIC for E. coli” value in the assay on E. coli came to 3.4 µM. Also, the CpxR expression entry with CpxR is recorded as “inhibition of CpxR”.

For the origin of these results see patent US11065296B2, “Antimicrobial peptide, its analog and use” (City University of Hong Kong, priority 2018, dated 2021).
